The text below walks through data of PubChem BioAssay (NCI).

Test systems include COLO 205 colon; HCC-2998 colon; HCT-15 colon; HOP-62 NSCLC; IGROV1 ovarian; K-562 leukemia; NCI-H226 lung; SK-OV-3 ovarian; SNB-19 CNS; SR leukemia.
Common to all, as to experiment: NCI tumour cell line growth inhibition, 48 h

“And” between values parts separate entries of the source, which are not always exact repeats. Equal values may be shown once.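 Compound exposure: 48 hours, 5 concentrations, 96-well plates. GI50 is the concentration that inhibits growth by half. TGI denotes the concentration required for complete inhibition of growth.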 Bounds are passed on as bounds.

On to `CCCC/C(C)=N/NC(N)=S`, for which the TGI in the experiment on COLO 205 colon, in the experiment on HCC-2998 colon, in the experiment on HCT-15 colon, in the experiment with HOP-62 NSCLC, with IGROV1 ovarian and with K-562 leukemia was over 100 µM in each case. Also, the TGI in the experiment with NCI-H226 lung, with SK-OV-3 ovarian, in the experiment with SNB-19 CNS and in the experiment with SR leukemia was over 100 µM in each case.
As to `C[P+](C)(CC(F)(F)F)c1ccccc1`, the TGI in the experiment with COLO 205 colon, with HCC-2998 colon, with HCT-15 colon, in the experiment with HOP-62 NSCLC, in the experiment with IGROV1 ovarian and in the experiment on K-562 leukemia was over 100 µM throughout. Moreover, the TGI in the experiment on NCI-H226 lung, with SK-OV-3 ovarian, with SNB-19 CNS and with SR leukemia was over 100 µM throughout.
Turning to `Cc1cc(C#Cc2ccccc2)ccc1-n1c(/C=C/c2ccc(O)cc2)nc2ccccc2c1=O`, the GI50 with COLO 205 colon was 1.99 µM; in the experiment on HCC-2998 colon, 2.35 µM; in the experiment on HCT-15 colon it was 2.5 µM; in the experiment with HOP-62 NSCLC, 13.1 µM; with IGROV1 ovarian it was 20.6 µM; in the experiment with K-562 leukemia it was 2 µM. For the same molecule, the GI50 was 3.99 µM with NCI-H226 lung, 9.91 µM with SK-OV-3 ovarian, 6.91 µM in the experiment with SNB-19 CNS and 2.45 µM with SR leukemia. For the same molecule, the TGI with COLO 205 colon was 4.75 µM; with HCC-2998 colon, 7.35 µM; in the experiment on HCT-15 colon, 19.2 µM; in the experiment with HOP-62 NSCLC, over 100 µM; with IGROV1 ovarian it was over 100 µM; in the experiment with K-562 leukemia, over 100 µM. Also, the TGI in the experiment with NCI-H226 lung is over 100 µM; in the experiment on SK-OV-3 ovarian it was over 100 µM; in the experiment with SNB-19 CNS, over 100 µM; with SR leukemia, 29 µM.
On to `Cc1ccc(S(=O)(=O)ON=C2CC(c3ccccc3)N(C)C(c3ccccc3)C2)cc1` (stereo unspecified), for which the TGI was 29 µM and 28.3 µM in the experiment on COLO 205 colon; 32.3 µM with HCC-2998 colon; 34.7 µM and 44.9 µM in the experiment with HCT-15 colon; 68.4 µM and 98.2 µM in the experiment with HOP-62 NSCLC; 62.1 µM and 56.7 µM with IGROV1 ovarian; over 100 µM in the experiment on K-562 leukemia. Also, the TGI is 70.1 µM and 64 µM in the experiment with NCI-H226 lung; 44.9 µM and 47.7 µM in the experiment with SK-OV-3 ovarian; 92.8 µM and > 100 µM in the experiment on SNB-19 CNS; 62.5 µM and 57.3 µM in the experiment with SR leukemia. Also, the GI50 in the experiment with K-562 leukemia was 60.1 µM and 29.3 µM.
Consider `CCCCN=C(OC1C=CCCC1)SC` (stereo unspecified), for which the TGI with COLO 205 colon, with HCC-2998 colon, with HCT-15 colon, with HOP-62 NSCLC, in the experiment on IGROV1 ovarian and in the experiment on K-562 leukemia was over 100 µM each time. Further, the TGI in the experiment with NCI-H226 lung, with SK-OV-3 ovarian, in the experiment on SNB-19 CNS and in the experiment on SR leukemia was over 100 µM in each case.
